Results: US5194645A, “Trans-Pt (IV) compounds” (Johnson Matthey Public Limited Company, priority 1991, dated 1993)

How the values were obtained:
[1] = test system: CHI ®; assay: In vitro cytotoxicity (SRB), CHI ®; type: cell-based, human; details: CHI ® (cisplatin resistant), ovarian cancer, 48 to 96 hours
Procedure: (§1) Additional in vitro biological testing was conducted using cell lines derived from human carcinomas and maintained at the Institute of Cancer Research, Sutton, England (see C A Hills & colleagues, Br J Cancer 59, 527-34 (1989)). Monolayer cells were trypsinized and seeded in 96-well microtiter plates at a density of 1×10^4 cells/well in 200 μl of growth medium. Cells were incubated overnight and test compounds were added to triplicate wells at various concentrations for a total of 48 to 96 hours. For toxicity analysis after drug exposure, the cells were fixed with trichloroacetic acid and stained for cellular protein content by incubation for 30 minutes with 0.4% (wt/vol) sulforodamine B (SRB) dissolved in 1% acetic acid. The unbound dye was removed by 1% acetic acid washes, and the bound dye was extracted with 10 mM Tris buffer. The amount of dye in solution was quantified by absorbance at 564 nm.
(§2) In the Tables A and B below, all the cells are ovarian cancer cells with the exception of GCT27^R /GCT27 which are testicular. Table A gives IC50 values in μM; Table B gives Resistance Factors as a ratio of IC50 for a cell line bred to be resistant to cisplatin against IC50 for the nonresistant cell line.

[2] = test system: 41M ®/41M; assay: Resistance factor 41M ®/41M; type: cell-based, human; details: ratio of IC50 resistant to nonresistant line, ovarian
Procedure: as §1, §2

[3] = test system: A2780 ®/A2780; assay: Resistance factor A2780 ®/A2780; type: cell-based, human; details: ratio of IC50 resistant to nonresistant line, ovarian
Procedure: as §1, §2

[4] = test system: 41M ®; assay: In vitro cytotoxicity (SRB), 41M ®; type: cell-based, human; details: 41M ® (cisplatin resistant), ovarian cancer, 48 to 96 hours
Procedure: as §1, §2

[5] = test system: A2780 ®; assay: In vitro cytotoxicity (SRB), A2780 ®; type: cell-based, human; details: A2780 ® (cisplatin resistant), ovarian cancer, 48 to 96 hours
Procedure: as §1, §2

[6] = test system: A2780; assay: In vitro cytotoxicity (SRB), A2780; type: cell-based, human; details: A2780, ovarian cancer, 48 to 96 hours
Procedure: as §1, §2

[7] = test system: CHI ®/CHI; assay: Resistance factor CHI ®/CHI; type: cell-based, human; details: ratio of IC50 resistant to nonresistant line, ovarian
Procedure: as §1, §2

[8] = test system: CHI; assay: In vitro cytotoxicity (SRB), CHI; type: cell-based, human; details: ovarian cancer, 48 to 96 hours
Procedure: as §1, §2

[9] = test system: SKOV-3; assay: In vitro cytotoxicity (SRB), SKOV-3; type: cell-based, human; details: SKOV-3, ovarian cancer, 48 to 96 hours
Procedure: as §1, §2

[10] = test system: HX62; assay: In vitro cytotoxicity (SRB), HX62; type: cell-based, human; details: HX62, ovarian cancer, 48 to 96 hours
Procedure: as §1, §2

[11] = test system: 41M; assay: In vitro cytotoxicity (SRB), 41M; type: cell-based, human; details: ovarian cancer, 48 to 96 hours
Procedure: as §1, §2

[12] = test system: GCT27 ®/GCT27; assay: Resistance factor GCT27 ®/GCT27; type: cell-based, human; details: ratio of IC50 resistant to nonresistant line, testicular
Procedure: as §1, §2

[13] = test system: Adj/PC6; assay: In vivo Adj/PC6 tumour test in mice (LD50, ED90, therapeutic index)
Procedure: The Adj/PC6 testing was carried out as described by P M Goddard et al presented in Sixth NCI-EORTC Symposium on New Drugs in Cancer Therapy 1989, which is a development of the basic method described by T A Connors et al, Chem Biol Interact 5, 415(1972). The in vivo L1210 tests were conducted according to the NCI protocol, Cancer Chemotherapy Reports, Part 3, vol 2, (Sept 1972) except that the animals used were DBA/2 mice and that dosing was carried out on days 1, 5 and 9. The animals were sacrificed when moribund. The compounds were administered parenterally (ip).
In the Adj/PC6 testing, LD50 and ED90 values in mg/kg body weight were determined in the conventional manner. The therapeutic index (TI) was calculated as the ratio of LD50 to ED90, and the results are shown below.
Additional tests were carried out in vivo using the compound of Example 2, against sensitive Adj/PC6 tumour cell lines, and against tumour cell lines resistant to various platinum anti-tumour agents, and a TI (Therapeutic Index) calculated, as described above.

[14] = test system: PXN/94; assay: In vitro cytotoxicity (SRB), PXN/94; type: cell-based, human; details: PXN/94, ovarian cancer, 48 to 96 hours
Procedure: as §1, §2

[15] = test system: Adj/PC6/tetraplatin res; assay: In vivo Adj/PC6 tetraplatin-resistant tumour test in mice
Procedure: (§3) The animals were sacrificed when moribund. The compounds were administered parenterally (ip).

[16] = test system: Adj/PC6/iproplatin res; assay: In vivo Adj/PC6 iproplatin-resistant tumour test in mice; set-up: key to ED90: --: indicates 90% inhibition not achieved for doses up to LD50
Procedure: as §3

[17] = test system: OVCAR-3; assay: In vivo OVCAR-3 ovarian carcinoma xenograft; set-up: species or system mice; details: tumour volume vs control
[18] = test system: Adj/PC6/cisplatin res; assay: In vivo Adj/PC6 cisplatin-resistant tumour test in mice; set-up: key to ED90: --: indicates 90% inhibition not achieved for doses up to LD50
Procedure: as §3

[19] = test system: OVCAR-3; assay: In vivo OVCAR-3 ovarian carcinoma xenograft; set-up: species or system mice; details: delay in doubling of tumour volume vs control
Procedure: The "growth delay" was also measured which represents the delay in achieving a doubling of the tumour volume for the treated group compared to the control group.

[20] = Adj/PC6, comparison with cis-isomer

| Compound | IC50 [1] [µM] | Resistance Factor 41M ®/41M [2] | Resistance Factor A2780 ®/A2780 [3] | IC50 [4] [µM] | IC50 [5] [µM] | IC50 [6] [µM] | Resistance Factor CHI ®/CHI [7] | IC50 [8] [µM] | IC50 [9] [µM] | IC50 [10] [µM] | IC50 [11] [µM] | ED90 ([13]; Adj/PC6 testing, mice, ip) [mg/kg body weight] | LD50 ([13]; Adj/PC6 testing, mice, ip) [mg/kg body weight] | TI (therapeutic index, ratio of LD50 to ED90) ([13]; Adj/PC6 testing, mice, ip) | IC50 [14] [µM] | other results |
| --- | --- | --- | --- | --- | --- | --- | --- | --- | --- | --- | --- | --- | --- | --- | --- | --- |
| [NH2][Pt]([OH])([OH])([Cl])([Cl])[NH]Cc1ccccc1 [B, t[PtCl2 (OH2)NH3 (PhCH2 NH2)]] | 1.95 | 1.0 | 4.0 | 1.35 | 4.2 | 1.06 | 1.7 | 1.12 | 8.2 | 10.2 | 1.3 |  |  |  |  |  |
| CC[N](CC)[Pt]([NH2])([OH])([OH])([Cl])[Cl] [EX 10, t-[PtCl2 (OH)2 NH3 (Et2 NH)]] | 4.6 |  |  | 0.8 | 11.6 | 1.9 |  | 3.3 | 12.1 | 3.2 | 1.8 |  |  |  |  |  |
| [NH2][Pt]([OH])([OH])([Cl])([Cl])[NH]C1CCCC1 [EX 1, trans-[PtCl2 (OH)2 (NH3)(c-C5 H9 NH2)]] | 1.9 | 1.2 | 5.5 | 1.3 | 5.2 | 0.95 | 1.7 | 1.15 | 7 | 10.2 | 1.1 |  |  |  |  |  |
| trans-[PtCl2 (OH)2 NH3 (C10 H21 NH2)] [EX 8] | 14.6 |  |  | 5.3 | 14.1 | 2.9 |  | 14 | 25 | 23 | 12 |  |  |  |  |  |
| N.N.[Cl][Pt][Cl] [Cisplatin, cis-[PtCl2 (NH3)2], reference compound] |  | 4.7 | 15.7 |  |  |  | 6.4 |  |  |  |  |  |  |  |  | Resistance Factor GCT27 ®/GCT27 [12]: 6.2 |
| CC(C)(C)[NH][Pt]([NH2])([OH])([OH])([Cl])[Cl] [EX 4, trans-[PtCl2 (OH)2 NH3 (t-C4 H9 NH2)]] | 1.6 | 0.8 |  | 0.9 |  |  | 2.2 | 0.74 | 4.7 | 1.8 | 1.1 | 4.7 | 35 | 7.4 | 3 |  |
| C1CN2CCC1CC2.[NH2][Pt]([OH])([OH])([Cl])[Cl] [EX 11, t-[PtCl2 (OH)2 NH3 (quinuclidine)]] | 14.3 |  |  | 9.5 | 16 | 3.2 |  | 10.2 | 27 | 40 | 14.4 |  |  |  |  |  |
| t-[PtCl2 (OH)2 NH3 (exo-2-aminonorbornane)] | 1.7 | 1.0 |  | 1.47 |  |  | 1.2 | 1.4 | 4.4 | 5.6 | 1.4 | < 6.25 | 15.5 | > 2.5 | 3.2 |  |
| [NH2][Pt]([OH])([OH])([Cl])([Cl])[N]1CCOCC1 [EX 7, trans-[PtCl2 (OH)2 NH3 (morpholine)]] | 28.3 | 2.1 |  | 54 | 47 | 10.9 | 1.6 | 17.3 | 47 | 100 | 26 | 94 | 82 | < 1 | 50 |  |
| CC(C)[NH][Pt]([NH2])([OH])([OH])([Cl])[Cl] [EX 3, trans-[PtCl2 (OH)2 (NH3)((CH3)2 CHNH2)]] | 5.5 | 1.4 |  | 4.6 |  |  | 2.3 | 2.4 | 9.2 | 14 | 3.2 | 10.5 | 18 | 1.7 | 8.3 |  |
| ctc[PtCl2 (OH) NH3(c-C6 H11 NH2)] [Cis-isomer, reference compound] |  |  |  |  |  |  |  |  |  |  |  |  |  |  |  | ED90 [15]: 12 mg/kg; LD50 [15]: > 12.5 mg/kg; TI (Therapeutic Index) [15]: > 1; ED90 [16]: --; LD50 [16]: 8.8 mg/kg; T/C (day 28) ([17]; 2 mg/kg): 0.636; T/C (day 28) ([17]; 4 mg/kg): 0.427; T/C (day 28) ([17]; 8 mg/kg): 0.599; ED90 [18]: --; LD50 [18]: 8.8 mg/kg; ED90 [13, 20]: 1.4 mg/kg; LD50 [13, 20]: 17.5 mg/kg; TI (Therapeutic Index) [13, 20]: 13; Growth Delay ([19]; 2 mg/kg): 4.3 days; Growth Delay ([19]; 4 mg/kg): 15.2 days; Growth Delay ([19]; 8 mg/kg): 5.5 days |
| C[NH][Pt]([NH2])([OH])([OH])([Cl])[Cl] [EX 6, trans-[PtCl2 (OH)2 NH3 (MeNH2)]] | 30.5 | 6.1 | 10.3 | 33 | 64 | 6.2 | 2.4 | 12.5 | 72 | 110 | 5.4 |  |  |  |  |  |
